According to US10676429B2, “Sulfamoyl-arylamides and the use thereof as medicaments for the treatment of hepatitis B” (priority 2012, dated 2020):

Assays:
HepG2 cells = assay: Cytotoxicity in HepG2 cells, 4 days, Resazurin assay; conditions: read-out: HepG2 4 days CC50; HepG2 cells, 4 days, Resazurin
HBV [1] = assay: Anti-HBV activity in stable transfected HepG2.2.15 cell line (HBV DNA from secreted virions, realtime PCR); type: cell-based; conditions: HepG2.2.15 cells, 6 days of treatment, secreted virion HBV DNA, read-out: HepG2 2.15 EC50
HBV [2] = assay: Anti-HBV activity in HepG2.117 cell line (Tet-off, intracellular HBV DNA, realtime PCR); type: cell-based; conditions: HepG2.117 cells, 3 days of treatment, intracellular HBV DNA, read-out: HepG2 117 EC50
[3] = Cytotoxicity in HepG2 cells using CellTiter-Blue (6 days); conditions: human
[4] = Cytotoxicity in HepG2 cells, 4 days, Resazurin assay; conditions: human, HepG2 cells
[5] = Hepatitis B virus, HepG2.2.15, 144 h
[6] = Hepatitis B virus, HepG2.117, 72 h

SMILES	CC50 (HepG2 cells) [nM]	EC50 (HBV [1]) [nM]	EC50 (HBV [2]) [nM]	EC50 (HBV [1]; [5]) [nM]	EC50 (HBV [2]; [6]) [nM]	CC50 at 6 days [3] [nM]	CC50 at 4 days [4] [nM]
Cc1cc(NC(=O)c2cccc(S(=O)(=O)NC3Cc4ccccc4C3O)c2)ccc1F (single isomer, unassigned) [Compound 141b, N-(4-fluoro-3-methyl-phenyl)-3-[[(1R,2S)-1-hydroxyindan-2-yl]sulfamoyl]benzamide or N-(4-fluoro-3-methyl-phenyl)-3-[[(1S,2R)-1-hydroxyindan-2-yl]sulfamoyl]benzamide]	> 25000	270	230	–	–	–	–
Cc1cc(NC(=O)c2cccc(S(=O)(=O)NC3Cc4ccccc4C3O)c2)ccc1F (single isomer, unassigned) [Compound 141c, N-(4-fluoro-3-methyl-phenyl)-3-[[(1S,2S)-1-hydroxyindan-2-yl]-sulfamoyl]benzamide or N-(4-fluoro-3-methyl-phenyl)-3-[[(1R,2R)-1-hydroxyindan-2-yl]sulfamoyl]benzamide]	> 25000	170	290	–	–	–	–
Cc1cc(NC(=O)c2cccc(S(=O)(=O)NC3Cc4ccccc4C3O)c2)ccc1F (single isomer, unassigned) [Compound 141d, N-(4-fluoro-3-methyl-phenyl)-3-[[(1R,2S)-1-hydroxyindan-2-yl]sulfamoyl]benzamide or N-(4-fluoro-3-methyl-phenyl)-3-[[(1S,2R)-1-hydroxyindan-2-yl]sulfamoyl]benzamide]	> 25000	560	1140	–	–	–	–
Cc1cc(NC(=O)c2cccc(S(=O)(=O)NC3CCC(O)C3)c2)ccc1F (single isomer, unassigned) [Compound 145b, N-(4-fluoro-3-methyl-phenyl)-3-[[(1R,3S)-3-hydroxycyclopentyl]sulfamoyl]benzamide or N-(4-fluoro-3-methyl-phenyl)-3-[[(1S,3R)-3-hydroxycyclopentyl]sulfamoyl]benzamide]	> 25000	440	580	–	–	–	–
Cc1cc(NC(=O)c2cccc(S(=O)(=O)NC3CCC(O)C3)c2)ccc1F (single isomer, unassigned) [Compound 145c, N-(4-fluoro-3-methyl-phenyl)-3-[[(1S,3S)-3-hydroxycyclopentyl]-sulfamoyl]benzamide or N-(4-fluoro-3-methyl-phenyl)-3-[[(1R,3R)-3-hydroxycyclopentyl]sulfamoyl]benzamide]	> 25000	340	340	–	–	–	–
Cc1cc(NC(=O)c2cccc(S(=O)(=O)NC3CCC(O)C3)c2)ccc1F (single isomer, unassigned) [Compound 145d, N-(4-fluoro-3-methyl-phenyl)-3-[[(1S,3S)-3-hydroxycyclopentyl]-sulfamoyl]benzamide or N-(4-fluoro-3-methyl-phenyl)-3-[[(1R,3R)-3-hydroxycyclopentyl]sulfamoyl]benzamide]	> 25000	400	640	–	–	–	–
O=C(Nc1ccc(F)cc1)c1cccc(S(=O)(=O)NC2CCOCC2)c1 [Compound 1]	> 100000	–	–	930	1670	–	–
O=C(Nc1ccc(F)cc1)c1cccc(S(=O)(=O)NC2CCCC2)c1 [Compound 2]	32700	–	–	470	560	–	–
O=C(Nc1ccc(F)cc1)c1cccc(S(=O)(=O)NC2COC2)c1 [Compound 3]	> 100000	–	–	2100	3050	–	–
O=C(Nc1ccc(F)cc1)c1cccc(S(=O)(=O)NC2CCC2)c1 [Compound 5]	57700	–	–	830	900	–	–
O=C(Nc1ccc(F)cc1)c1cccc(S(=O)(=O)N[C@@H]2CCOC2)c1 [Compound 8]	> 100000	–	–	1180	2030	–	–
O=C(Nc1ccc(F)cc1)c1cccc(S(=O)(=O)N[C@H]2CCOC2)c1 [Compound 9]	> 100000	–	–	540	1360	–	–
CCC(CC)NS(=O)(=O)c1cccc(C(=O)Nc2ccc(F)cc2)c1 [Compound 10]	40300	–	–	750	3630	–	–
Cc1cccc(NC(=O)c2cc(S(=O)(=O)N3CCCCC3)ccc2Cl)c1 [Compound 22]	–	–	–	520	–	> 25000	–
O=C(Nc1cccc(F)c1)c1cc(S(=O)(=O)N2CCCC2)c(Cl)cc1Cl [Compound 24]	–	–	–	790	–	> 25000	–
O=C(Nc1ccccc1)c1cc(S(=O)(=O)NCc2ccccc2)ccc1Cl [Compound 25]	–	–	–	800	1020	> 25000	> 6250
Cc1cccc(NC(=O)c2cc(S(=O)(=O)N3CCOCC3)ccc2Cl)c1 [Compound 27]	–	–	–	1130	–	> 25000	–
CC(C)(C)NS(=O)(=O)c1cccc(C(=O)Nc2ccc(F)cc2)c1 [Compound 28]	52500	–	–	1240	2280	–	–
O=C(Nc1ccc(F)cc1)c1cc(S(=O)(=O)N2CCOCC2)ccc1Cl [Compound 29]	–	–	–	1390	–	> 25000	–

SMILES	CC50 (HepG2 cells) [nM]	EC50 (HBV [1]) [nM]	EC50 (HBV [2]) [nM]	EC50 (HBV [1]; [5]) [nM]	EC50 (HBV [2]; [6]) [nM]	CC50 at 6 days [3] [nM]	CC50 at 4 days [4] [nM]
O=C(Nc1ccc(Br)cc1)c1ccc(Cl)c(S(=O)(=O)N2CCCCCC2)c1 [Compound 30]	–	–	–	1670	–	> 25000	–
O=C(Nc1ccccc1Cl)c1ccc(Cl)c(S(=O)(=O)N2CCCCCC2)c1 [Compound 33]	–	–	–	3560	–	> 25000	–
O=C(Nc1ccc(F)cc1)c1cccc(S(=O)(=O)N2CCCCC2)c1 [Compound 35]	70400	–	–	4500	2700	–	–
CN(C)S(=O)(=O)c1cccc(C(=O)Nc2ccc(F)cc2)c1 [Compound 37]	> 100000	–	–	5020	2990	–	–
CC(=O)N1CCC(NS(=O)(=O)c2cccc(C(=O)Nc3ccc(F)cc3)c2)CC1 [Compound 39]	> 100000	–	–	6770	4680	–	–
CC(=O)N1CCN(S(=O)(=O)c2cccc(C(=O)Nc3ccc(F)cc3)c2)CC1 [Compound 40]	> 100000	–	–	7100	6290	–	–
O=C(Nc1ccc(F)cc1)c1cccc(S(=O)(=O)N2CCOCC2)c1 [Compound 41]	> 100000	–	–	8490	11000	–	–
O=C(Nc1ccccc1Cl)c1cc(S(=O)(=O)NC2CCCCC2)ccc1F [Compound 42]	–	–	–	11600	> 25000	37200	–
CN1CCN(S(=O)(=O)c2cccc(C(=O)Nc3ccc(F)cc3)c2)CC1 [Compound 44]	> 100000	–	–	26500	11100	–	–
CN1CCC(NS(=O)(=O)c2cccc(C(=O)Nc3ccc(F)cc3)c2)CC1 [Compound 45]	> 100000	–	–	59300	16000	–	–
CN(C1CCCC1)S(=O)(=O)c1cccc(C(=O)Nc2ccc(F)cc2)c1 [Compound 46]	23800	–	–	2610	11100	–	–
CC(C)NS(=O)(=O)c1cccc(C(=O)Nc2ccc(F)cc2)c1 [Compound 47]	57500	–	–	740	960	–	–
O=C(Nc1cccc(F)c1)c1cccc(S(=O)(=O)NC2CCCC2)c1 [Compound 77]	> 25000	–	–	270	430	–	–
COc1cc(NC(=O)c2cccc(S(=O)(=O)N[C@H]3CCOC3)c2)ccc1F [Compound 103]	> 25000	–	–	2330	2660	–	–
Cc1c(F)ccc(NC(=O)c2cccc(S(=O)(=O)N[C@H]3CCOC3)c2)c1F [Compound 104]	> 25000	–	–	290	780	–	–
Cc1cc(NC(=O)c2cccc(S(=O)(=O)N[C@H]3CCOC3)c2)c(F)cc1F [Compound 106]	> 25000	–	–	2220	3300	–	–
Cc1c(F)ccc(NC(=O)c2cccc(S(=O)(=O)NC3(C)COC3)c2)c1C [Compound 115]	> 25000	–	–	2740	1650	–	–
Cc1c(NC(=O)c2cccc(S(=O)(=O)N[C@H]3CCOC3)c2)ccc(F)c1F [Compound 118]	> 25000	–	–	3630	1910	–	–
Cc1cc(NC(=O)c2cccc(S(=O)(=O)NC3(C)COC3)c2)c(C)cc1F [Compound 119]	> 25000	–	–	3060	1910	–	–
